Laboratory results reported in US8440660B2 (Santen Pharmaceutical Co., Ltd., priority 2006, dated 2013).

Biological target: T1, Glucocorticoid Receptor (GR) (Homo sapiens, UniProt P04150)
T1 construct: purchased Invitrogen P2816
T1 sequence (P04150 1-777): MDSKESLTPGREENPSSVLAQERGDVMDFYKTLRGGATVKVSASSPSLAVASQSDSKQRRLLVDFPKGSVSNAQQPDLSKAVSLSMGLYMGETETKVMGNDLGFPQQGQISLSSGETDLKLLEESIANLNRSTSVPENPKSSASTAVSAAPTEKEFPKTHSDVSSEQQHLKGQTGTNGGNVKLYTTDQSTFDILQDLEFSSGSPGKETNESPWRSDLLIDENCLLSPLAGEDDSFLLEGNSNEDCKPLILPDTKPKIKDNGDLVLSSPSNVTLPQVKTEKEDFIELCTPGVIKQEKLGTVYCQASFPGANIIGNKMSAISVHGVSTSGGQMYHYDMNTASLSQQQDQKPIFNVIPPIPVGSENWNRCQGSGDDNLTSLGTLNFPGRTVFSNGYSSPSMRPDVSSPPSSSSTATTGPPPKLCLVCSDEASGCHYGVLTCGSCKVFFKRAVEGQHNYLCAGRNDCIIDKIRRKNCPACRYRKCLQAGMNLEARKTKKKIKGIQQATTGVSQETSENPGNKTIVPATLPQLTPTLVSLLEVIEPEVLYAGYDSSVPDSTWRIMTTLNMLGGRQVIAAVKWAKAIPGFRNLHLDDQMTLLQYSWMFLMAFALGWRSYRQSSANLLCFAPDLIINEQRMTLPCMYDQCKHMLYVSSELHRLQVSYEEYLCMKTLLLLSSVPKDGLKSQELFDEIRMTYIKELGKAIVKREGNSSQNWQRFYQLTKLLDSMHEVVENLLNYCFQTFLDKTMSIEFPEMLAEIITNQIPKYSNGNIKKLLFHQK
Assay: GR receptor competitor assay by fluorescence polarization (Invitrogen GR competitor assay kit, cat No. P2816)
Settings: 20 μM test compound solution, 10 μL per well plus 5 μL 4×GS1 and 5 μL 4×GR solution; recombinant human GR; 2 to 4 hours at room temperature; a ratio of 100% or more is indicated by 100%; read-out: GR Binding ratio (%)
Outline: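 Recombinant human GR with fluorescent ligand Fluormone GS1 in pH 7.4 phosphate buffer with molybdate, EDTA, DTT, stabilizing peptide and 2% DMSO; compound added as 20 μM solution (pre-mix). FP read after 2–4 h at room temperature in the dark. Binding ratio (%) normalized between buffer and dexamethasone controls.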

inhibition at 10 µM [%]	Structure (SMILES)
100	COc1ccc([N+](=O)[O-])cc1OCc1c(-c2ccc(OC(=O)c3ccccc3OC)cc2OC)ccc2c1C(C)=CC(C)(C)N2 [Compound 1-102, 6-[2-Methoxy-4-(2-methoxybenzoyloxy)phenyl]-5-(2-methoxy-5-nitrophenoxymethyl)-2,2,4-trimethyl-1,2-dihydroquinoline]
100	COc1cc(OS(=O)(=O)C2CCCC2)ccc1-c1ccc2c(c1COc1cc(F)ccc1C)C(C)=CC(C)(C)N2 [Compound 4-29, 6-(4-Cyclopentylsulfonyloxy-2-methoxyphenyl)-5-(5-fluoro-2-methylphenoxymethyl)-2,2,4-trimethyl-1,2-dihydroquinoline]
100	COc1cc(OC(=O)c2cncs2)ccc1-c1ccc2c(c1COc1cc(F)ccc1C)C(C)=CC(C)(C)N2 [Compound 1-55, 5-(5-Fluoro-2-methylphenoxymethyl)-6-[2-methoxy-4-(thiazol-5-ylcarbonyloxy)phenyl]-2,2,4-trimethyl-1,2-dihydroquinoline]
98	COc1cc(OC(=O)C(C)(C)C)ccc1-c1ccc2c(c1COc1cc(F)ccc1C)C(C)=CC(C)(C)N2 [Compound 1-72, 6-(4-t-Butylcarbonyloxy-2-methoxyphenyl)-5-(5-fluoro-2-methylphenoxymethyl)-2,2,4-trimethyl-1,2-dihydroquinoline]
100	COc1cc(OC(=O)c2cncnc2)ccc1-c1ccc2c(c1COc1cc(F)ccc1C)C(C)=CC(C)(C)N2 [Compound 1-78, 5-(5-Fluoro-2-methylphenoxymethyl)-6-[2-methoxy-4-(pyrimidin-5-ylcarbonyloxy)phenyl]-2,2,4-trimethyl-1,2-dihydroquinoline]
100	COc1cc(OC(=O)c2cccnc2)ccc1-c1ccc2c(c1COc1cc(F)ccc1C)C(C)=CC(C)(C)N2 [Compound 1-13, 5-(5-Fluoro-2-methylphenoxymethyl)-6-[2-methoxy-4-(pyridin-3-ylcarbonyloxy)phenyl]-2,2,4-trimethyl-1,2-dihydroquinoline]
99	COc1ccc([N+](=O)[O-])cc1OCc1c(-c2ccc(OC(=O)c3cccnc3C)cc2OC)ccc2c1C(C)=CC(C)(C)N2 [Compound 1-101, 6-[2-Methoxy-4-(2-methylpyridin-3-ylcarbonyloxy)phenyl]-5-(2-methoxy-5-nitrophenoxymethyl)-2,2,4-trimethyl-1,2-dihydroquinoline]
100	COc1cccc(C(=O)Oc2ccc(-c3ccc4c(c3COc3cc(F)ccc3C)C(C)=CC(C)(C)N4)c(OC)c2)c1 [Compound 1-7, 5-(5-Fluoro-2-methylphenoxymethyl)-6-[2-methoxy-4-(3-methoxybenzoyloxy)phenyl]-2,2,4-trimethyl-1,2-dihydroquinoline]
100	COc1cc(OC(=O)c2ccco2)ccc1-c1ccc2c(c1COc1cc(F)ccc1C)C(C)=CC(C)(C)N2 [Compound 1-19, 5-(5-Fluoro-2-methylphenoxymethyl)-6-[4-(furan-2-ylcarbonyloxy)-2-methoxyphenyl]-2,2,4-trimethyl-1,2-dihydroquinoline]
100	COc1ccc(OC(=O)c2ccccn2)cc1-c1ccc2c(c1COc1cc(F)ccc1C)C(C)=CC(C)(C)N2 [Compound 1-44, 5-(5-Fluoro-2-methylphenoxymethyl)-6-[2-methoxy-5-(pyridin-2-ylcarbonyloxy)phenyl]-2,2,4-trimethyl-1,2-dihydroquinoline]
100	COc1cc(OC(=O)c2cccc(F)c2)ccc1-c1ccc2c(c1COc1cc(F)ccc1C)C(C)=CC(C)(C)N2 [Compound 1-60, 6-[4-(3-Fluorobenzoyloxy)-2-methoxyphenyl]-5-(5-fluoro-2-methylphenoxymethyl)-2,2,4-trimethyl-1,2-dihydroquinoline]
100	CCCC(=O)Oc1ccc(-c2ccc3c(c2COc2cc(F)ccc2C)C(C)=CC(C)(C)N3)c(OC)c1 [Compound 1-14, 6-(4-Butyryloxy-2-methoxyphenyl)-5-(5-fluoro-2-methylphenoxymethyl)-2,2,4-trimethyl-1,2-dihydroquinoline]
92	CCS(=O)(=O)Oc1ccc(-c2ccc3c(c2COc2cc(F)ccc2C)C(C)=CC(C)(C)N3)c(OC)c1 [Compound 4-12, 6-(4-Ethylsulfonyloxy-2-methoxyphenyl)-5-(5-fluoro-2-methylphenoxymethyl)-2,2,4-trimethyl-1,2-dihydroquinoline]
100	COc1cc(OC(=O)c2cccnc2C)ccc1-c1ccc2c(c1COc1cc(F)ccc1C)C(C)=CC(C)(C)N2 [Compound 1-63, 5-(5-Fluoro-2-methylphenoxymethyl)-6-[2-methoxy-4-(2-methylpyridin-3-ylcarbonyloxy)phenyl]-2,2,4-trimethyl-1,2-dihydroquinoline]
93	COc1ccccc1OC(=O)Oc1ccc(-c2ccc3c(c2COc2cc(F)ccc2C)C(C)=CC(C)(C)N3)c(OC)c1 [Compound 5-5, 5-(5-Fluoro-2-methylphenoxymethyl)-6-[2-methoxy-4-(2-methoxyphenoxycarbonyloxy)phenyl]-2,2,4-trimethyl-1,2-dihydroquinoline]
94	COc1cc(OC(=O)c2ccccc2)ccc1-c1ccc2c(c1COc1cc(F)ccc1C)C(C)=CC(C)(C)N2 [Compound 1-1, 6-(4-Benzoyloxy-2-methoxyphenyl)-5-(5-fluoro-2-methylphenoxymethyl)-2,2,4-trimethyl-1,2-dihydroquinoline]
100	COc1cc(OS(=O)(=O)CCC(F)(F)F)ccc1-c1ccc2c(c1COc1cc(F)ccc1C)C(C)=CC(C)(C)N2 [Compound 4-30, 5-(5-Fluoro-2-methylphenoxymethyl)-6-[2-methoxy-4-(3,3,3-trifluoroproprylsulfonyloxy)phenyl]-2,2,4-trimethyl-1,2-dihydroquinoline]

Structure (SMILES)	inhibition at 10 µM [%]
COc1cc(OC(=O)Nc2ccccc2Cl)ccc1-c1ccc2c(c1COc1cc(F)ccc1C)C(C)=CC(C)(C)N2 [Compound 6-3, 6-[4-(2-Chlorophenylaminocarbonyloxy)-2-methoxyphenyl]-5-(5-fluoro-2-methylphenoxymethyl)-2,2,4-trimethyl-1,2-dihydroquinoline]	98
COc1cc(OC(=O)Cc2cccnc2)ccc1-c1ccc2c(c1COc1cc(F)ccc1C)C(C)=CC(C)(C)N2 [Compound 1-64, 5-(5-Fluoro-2-methylphenoxymethyl)-6-[2-methoxy-4-(pyridin-3-ylacetoxy)phenyl]-2,2,4-trimethyl-1,2-dihydroquinoline]	100
COc1cccc(NC(=O)Oc2ccc(-c3ccc4c(c3COc3cc(F)ccc3C)C(C)=CC(C)(C)N4)c(OC)c2)c1 [Compound 6-12, 5-(5-Fluoro-2-methylphenoxymethyl)-6-[2-methoxy-4-(3-methoxyphenylaminocarbonyloxy)phenyl]-2,2,4-trimethyl-1,2-dihydroquinoline]	98
